# Assay results from patent publication US20240208992A1, “MACROCYCLES AS CFTR MODULATORS” (Idorsia Pharmaceuticals Ltd, priority 2021, published 2024).
# Biological target: human F508del-CFTR (Homo sapiens, UniProt P13569, DEL508-508)
# Assay: F508del-CFTR cell surface expression (corrector activity), DiscoveRx ß-galactosidase complementation chemiluminescence assay in recombinant U2OS cell line;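 further: U2OS cells co-expressing ProLink-tagged F508del-CFTR and a membrane-anchored enzyme acceptor, where more surface CFTR restores β-galactosidase activity measured by chemiluminescence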
# Conditions: for EC50: EC50, F508del-CFTR cell surface expression
# [1] = U2OS cells, 16h compound incubation, geomean values
# [2] = U2OS, in relation to Emax of corrector lumacaftor (=100%), arithmetic mean values
# [3] = U2OS cell line, 16h compound incubation, geomean values
# [4] = U2OS, in relation to the Emax of the corrector lumacaftor (=100%), U2OS cell line, 16h compound incubation, arithmetic mean values
# human F508del-CFTR, sequence (P13569 with tags, fused parts or gaps DEL508-508): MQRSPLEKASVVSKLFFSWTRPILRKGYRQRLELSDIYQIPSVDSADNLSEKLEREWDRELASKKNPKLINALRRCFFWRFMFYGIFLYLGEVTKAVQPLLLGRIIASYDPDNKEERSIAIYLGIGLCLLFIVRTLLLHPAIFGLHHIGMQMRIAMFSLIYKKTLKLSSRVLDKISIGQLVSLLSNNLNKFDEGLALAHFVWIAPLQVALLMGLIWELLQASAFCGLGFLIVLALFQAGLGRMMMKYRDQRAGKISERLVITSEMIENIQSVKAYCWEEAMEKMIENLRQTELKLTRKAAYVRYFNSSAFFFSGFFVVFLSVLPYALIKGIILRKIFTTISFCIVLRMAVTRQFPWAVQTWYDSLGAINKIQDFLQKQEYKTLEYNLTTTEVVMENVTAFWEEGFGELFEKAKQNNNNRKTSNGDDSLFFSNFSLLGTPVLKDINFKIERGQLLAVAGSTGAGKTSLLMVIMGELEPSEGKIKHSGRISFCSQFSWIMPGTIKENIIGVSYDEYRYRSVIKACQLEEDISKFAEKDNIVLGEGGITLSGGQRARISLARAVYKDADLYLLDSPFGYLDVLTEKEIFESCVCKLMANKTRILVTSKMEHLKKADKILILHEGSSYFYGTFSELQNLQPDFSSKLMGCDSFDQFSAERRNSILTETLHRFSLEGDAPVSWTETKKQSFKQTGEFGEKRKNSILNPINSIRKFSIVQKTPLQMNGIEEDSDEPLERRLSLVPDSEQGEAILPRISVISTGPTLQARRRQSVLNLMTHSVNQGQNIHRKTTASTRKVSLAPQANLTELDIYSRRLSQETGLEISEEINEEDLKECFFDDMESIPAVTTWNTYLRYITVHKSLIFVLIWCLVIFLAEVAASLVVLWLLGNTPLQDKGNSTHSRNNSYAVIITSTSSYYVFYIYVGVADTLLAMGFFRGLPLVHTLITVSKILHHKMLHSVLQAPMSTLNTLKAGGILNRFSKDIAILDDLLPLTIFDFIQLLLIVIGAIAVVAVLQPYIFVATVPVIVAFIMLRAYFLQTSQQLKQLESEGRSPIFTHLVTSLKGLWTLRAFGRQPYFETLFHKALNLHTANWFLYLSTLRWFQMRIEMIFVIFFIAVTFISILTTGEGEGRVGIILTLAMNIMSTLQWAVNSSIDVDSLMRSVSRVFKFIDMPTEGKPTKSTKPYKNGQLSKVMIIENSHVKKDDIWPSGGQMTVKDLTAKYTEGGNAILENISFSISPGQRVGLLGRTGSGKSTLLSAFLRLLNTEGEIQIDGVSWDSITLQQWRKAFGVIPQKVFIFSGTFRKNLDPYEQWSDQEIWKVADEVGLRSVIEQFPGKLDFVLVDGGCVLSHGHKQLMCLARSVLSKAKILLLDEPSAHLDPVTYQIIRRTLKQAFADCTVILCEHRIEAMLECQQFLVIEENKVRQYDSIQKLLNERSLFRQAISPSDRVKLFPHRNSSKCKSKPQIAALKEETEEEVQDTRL
Structure (SMILES),EC50 [1] [nM],Emax [2] [%],also measured
"COCCc1ccc(-c2noc(C[C@@H]3C(=O)N[C@H](Cc4ccccc4)COc4ccnc(OC)c4C(=O)N[C@H](C(=O)NCCc4noc(C5CC5)n4)CC(=O)N(C)[C@@H](CC(C)C)C(=O)N3C)n2)cc1 [Example 867, (3R,6R,9S,13S)-3-benzyl-N-(2-(5-cyclopropyl-1,2,4-oxadiazol-3-yl)ethyl)-9-isobutyl-16-methoxy-6-((3-(4-(2-methoxyethyl)phenyl)-1,2,4-oxadiazol-5-yl)methyl)-7,10-dimethyl-5,8,11,15-tetraoxo-2,3,4,5,6,7,8,9,10,11,12,13,14,15-tetradecahydropyrido[3,4-p][1]oxa[4,7,10,14]tetraazacycloheptadecine-13-carboxamide]",,,"EC50 (U2OS cells, 16h compound incubation, geomean of several measurements): 31 nM; Emax (U2OS, in relation to the Emax of the corrector lumacaftor (=100%), U2OS cells, 16h compound incubation, arithmetic mean): 413%"
"Cc1cc(CCNC(=O)[C@@H]2CC(=O)N(C)[C@@H](CC(C)C)C(=O)N(C)C3(CCCC3)C(=O)N[C@H](Cc3ccccc3)COc3cnc4ccccc4c3C(=O)N2)on1 [Example 708, (3′S,7′S,13′R)-13′-benzyl-7′-isobutyl-6′,9′-dimethyl-N-(2-(3-methylisoxazol-5-yl)ethyl)-1′,5′,8′,11′-tetraoxo-2′,3′,4′,5′,6′,7′,8′,9′,11′,12′,13′,14′-dodecahydro-1′H-spiro[cyclopentane-1,10′-[1]oxa[4,7,10,14]tetraazacycloheptadecino[17,16-c]quinoline]-3′-carboxamide]",874,195,
"COc1nccc2c1C(=O)N[C@H](C(=O)NCCc1c(F)cccc1F)CC(=O)N(C)[C@@H](CC(C)C)C(=O)N1CCCC[C@@H]1C(=O)N[C@H](Cc1ccccc1)CO2 [Example 478, (7S,11S,17aR,20R)-20-benzyl-N-(2,6-difluorophenethyl)-11-isobutyl-4-methoxy-10-methyl-5,9,12,18-tetraoxo-5,6,7,8,9,10,11,12,15,16,17,17a,18,19,20,21-hexadecahydro-14H-dipyrido[2,1-f:3′,4′-p][1]oxa[4,7,10,14]tetraazacycloheptadecine-7-carboxamide]",168,337,
"CC(C)C[C@H]1C(=O)N2CCCC[C@@H]2C(=O)N[C@H](Cc2ccccc2)COc2ccc3ncn(C)c3c2C(=O)N[C@H](C(=O)NCCc2ccc(-n3nccn3)cc2)CC(=O)N1C [Example 31, (8S,12S,18aR,21R)-N-(4-(2H-1,2,3-triazol-2-yl)phenethyl)-21-benzyl-12-isobutyl-5,11-dimethyl-6,10,13,19-tetraoxo-6,7,8,9,10,11,12,13,16,17,18,18a,19,20,21,22-hexadecahydro-5H,15H-imidazo[4′,5′:5,6]benzo[1,2-p]pyrido[2,1-f][1]oxa[4,7,10,14]tetraazacycloheptadecine-8-carboxamide]",,,EC50 [3]: 463 nM; Emax [4]: 111%
"COc1cc2c(cn1)OC[C@@H](Cc1ccccc1)NC(=O)[C@H]1CCCCN1C(=O)[C@H](CC(C)C)N(C)C(=O)C[C@@H](C(=O)NCCc1cc(C3CC3)on1)NC2=O [Example 518, (7S,11S,17aR,20R)-20-benzyl-N-(2-(5-cyclopropylisoxazol-3-yl)ethyl)-11-isobutyl-3-methoxy-10-methyl-5,9,12,18-tetraoxo-5,6,7,8,9,10,11,12,15,16,17,17a,18,19,20,21-hexadecahydro-14H-dipyrido[2,1-f:2′,3′-p][1]oxa[4,7,10,14]tetraazacycloheptadecine-7-carboxamide]",655,,"Emax (in relation to Emax of corrector lumacaftor (=100%), arithmetic mean values): 189%"
"COc1nc(C)cc2c1C(=O)N[C@H](C(=O)NCCc1cc(C)no1)CC(=O)N(C)[C@@H](CC(C)C)C(=O)N1CCC3(CC3)C[C@@H]1C(=O)N[C@H](Cc1ccccc1)CO2 [Example 683, (7′S,11′S,17a′R,20′R)-20′-benzyl-11′-isobutyl-4′-methoxy-2′,10′-dimethyl-N-(2-(3-methylisoxazol-5-yl)ethyl)-5′,9′,12′,18′-tetraoxo-5′,6′,7′,8′,9′,10′,11′,12′,14′,15′,17′,17a′,18′,19′,20′,21′-hexadecahydrospiro[cyclopropane-1,16′-dipyrido[2,1-f:3′,4′-p][1]oxa[4,7,10,14]tetraazacycloheptadecine]-7′-carboxamide]",362,262,
"CC(C)C[C@H]1C(=O)N(C)C2(CC2)C(=O)N[C@H](Cc2ccccc2)COc2cnc3ccccc3c2C(=O)N[C@H](C(=O)NCCc2cc(C(C)(C)C)on2)CC(=O)N1C [Example 119, (3′S,7′S,13′R)-13′-benzyl-N-(2-(5-(tert-butyl)isoxazol-3-yl)ethyl)-7′-isobutyl-6′,9′-dimethyl-1′,5′,8′,11′-tetraoxo-2′,3′,4′,5′,6′,7′,8′,9′,11′,12′,13′,14′-dodecahydro-1′H-spiro[cyclopropane-1,10′-[1]oxa[4,7,10,14]tetraazacycloheptadecino[17,16-c]quinoline]-3′-carboxamide]",,,EC50 [3]: 328 nM; Emax [4]: 248%
"CC(C)C[C@H]1C(=O)N2CCCC[C@H]2C(=O)N[C@H](Cc2ccccc2)COc2cnc3ccccc3c2C(=O)N[C@H](C(=O)NCCc2ccc(-n3nccn3)cc2)CC(=O)N1C [Example 464, (9S,13S,19aS,22R)-N-(4-(2H-1,2,3-triazol-2-yl)phenethyl)-22-benzyl-13-isobutyl-12-methyl-7,11,14,20-tetraoxo-7,8,9,10,11,12,13,14,17,18,19,19a,20,21,22,23-hexadecahydro-16H-pyrido[2′,1′:6,7][1]oxa[4,7,10,14]tetraazacycloheptadecino[17,16-c]quinoline-9-carboxamide]",319,109,
"COc1noc(CCNC(=O)[C@@H]2CC(=O)N(C)[C@@H](CC(C)C)C(=O)N(C)[C@H](C)C(=O)N[C@H](Cc3ccccc3)COc3ccnc(OC)c3C(=O)N2)c1F [Example 765, (3R,6R,9S,13S)-3-benzyl-N-(2-(4-fluoro-3-methoxyisoxazol-5-yl)ethyl)-9-isobutyl-16-methoxy-6,7,10-trimethyl-5,8,11,15-tetraoxo-2,3,4,5,6,7,8,9,10,11,12,13,14,15-tetradecahydropyrido[3,4-p][1]oxa[4,7,10,14]tetraazacycloheptadecine-13-carboxamide]",300,323,
"Cc1cc(CCNC(=O)[C@@H]2CC(=O)N(C)[C@@H](CC(C)C)C(=O)N(C)[C@H](COCc3ccccc3)C(=O)N[C@H](Cc3ccccc3)COc3cnc4ccccc4c3C(=O)N2)on1 [Example 564, (3S,7S,10R,13R)-13-benzyl-10-((benzyloxy)methyl)-7-isobutyl-6,9-dimethyl-N-(2-(3-methylisoxazol-5-yl)ethyl)-1,5,8,11-tetraoxo-1,2,3,4,5,6,7,8,9,10,11,12,13,14-tetradecahydro-[1]oxa[4,7,10,14]tetraazacycloheptadecino[17,16-c]quinoline-3-carboxamide]",49,298,
"COc1cccc(CCNC(=O)[C@@H]2CC(=O)N(C)[C@@H](CC(C)C)C(=O)N(C)CC(=O)N[C@H](Cc3ccccc3)COc3ccc4c(c3C(=O)N2)CCO4)c1 [Example 450, (3S,7S,13R)-13-benzyl-7-isobutyl-N-(3-methoxyphenethyl)-6,9-dimethyl-1,5,8,11-tetraoxo-1,2,3,4,5,6,7,8,9,10,11,12,13,14,19,20-hexadecahydrobenzofuro[4,5-p][1]oxa[4,7,10,14]tetraazacycloheptadecine-3-carboxamide]",379,107,
